Measurements published in the NIST ThermoML archive (doi:10.1021/je049562e).

Conditions: Liquid, Twin ebulliometer

CCCCCCC [heptane]
Conditions	vapor or sublimation pressure [kPa]
372.08 K	102.9
374.5 K	110.39
377.68 K	120.89
384.39 K	145.56
389.41 K	166.41
393.58 K	185.5
396.7 K	200.79
401.26 K	224.89
405.44 K	248.92
409.66 K	275.09
413.8 K	302.76
419.17 K	341.76
423.85 K	378.8
428.69 K	420.15
433.81 K	467.65
438.86 K	518.27
443.5 K	568.27
447.95 K	619.76
451.8 K	666.97
456.35 K	726.16
459.78 K	773.29
465.07 K	850.62
469.84 K	925.23
473.39 K	983.9
476.11 K	1030.6
479.57 K	1092.4
483.67 K	1169.4
487.36 K	1242.3
490.81 K	1313.4
494.11 K	1384.2
496.77 K	1443.4
500.01 K	1518.2
503.59 K	1604.1
507.39 K	1699.5
510.95 K	1793
515.27 K	1911.6
518.99 K	2019.1
522.22 K	2116.1
525.53 K	2219.7
528.3 K	2309.8
531.47 K	2416.5
534.57 K	2525.7
537.2 K	2621.8
